Test results from patent publication US8093386B2, “Thioaryl substituted inhibitors of zinc proteases and their use” (Bracco Imaging S.p.A, priority 2006, dated 2012).
One block for each compound: values may come before it.

How the values were obtained:
Format in all cases: biochemical
[1] = target: T1, MMP-2 (Homo sapiens, UniProt P08253); assay: In vitro fluorometric inhibition assay of MMPs: MMP-2
T1 construct: gift of Prof; Gillian Murphy (Oncology Department, Cambridge University, UK)
T1 sequence (P08253 110-660): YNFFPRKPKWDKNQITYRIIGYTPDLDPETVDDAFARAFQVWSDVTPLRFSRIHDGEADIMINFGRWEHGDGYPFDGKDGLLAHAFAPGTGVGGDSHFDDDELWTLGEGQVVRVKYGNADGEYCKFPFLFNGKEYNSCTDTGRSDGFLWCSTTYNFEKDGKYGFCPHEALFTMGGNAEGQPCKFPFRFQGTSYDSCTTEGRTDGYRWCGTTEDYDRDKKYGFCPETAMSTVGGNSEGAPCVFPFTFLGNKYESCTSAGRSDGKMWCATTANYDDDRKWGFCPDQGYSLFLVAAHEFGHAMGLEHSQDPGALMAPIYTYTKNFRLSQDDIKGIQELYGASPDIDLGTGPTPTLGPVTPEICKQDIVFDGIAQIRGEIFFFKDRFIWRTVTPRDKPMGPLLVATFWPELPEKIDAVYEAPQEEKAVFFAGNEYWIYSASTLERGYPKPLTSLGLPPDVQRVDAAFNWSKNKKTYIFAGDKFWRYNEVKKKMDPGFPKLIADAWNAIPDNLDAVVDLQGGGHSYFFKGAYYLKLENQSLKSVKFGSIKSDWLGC
Experimental: (§1) Analysis of the In Vitro Inhibition Activity of Zinc Metalloproteinases: In Vitro Inhibition of MMMPs
(§2) The human recombinant Progelatinase A (pro-MMP-2), B (pro-MMP-9), MMP-14cd and MMP-16cd, were provided by Prof. Gillian Murphy (Oncology Department, Cambridge University, UK); pro-MMP-1, pro-MMP-3, pro-MMP-7, pro-MMP-8, pro-MMP-13 and pro-MMP-14 were bought from Calbiochem. The proenzymes were activated immediately before the use with p-aminophenylmercuric acetate (APMA 2 mM for 1 h at 37° C. for MMP-1, MMP-2 and MMP-8, 1 mM for 1 h at 37° C. for MMP-9 and MMP-7, 1 mM for 30 min at 37° C. for MMP-13). Pro-MMP-14 and pro-MMP-3 were activated with trypsin 5 μg/ml for 15 min at 37° C. followed the soybean trypsin inhibitor (SBTI) 23 μg/ml for pro-MMP-14 and 62 μg/ml for pro-MMP-3. The catalytic domains of MMP-14 and MMP-16 were utilized without activation.
(§3) For the assay measurements, the stock solutions of the inhibitor (DMSO, 100 mM) were further diluted up to 7 different concentrations (0.01 nM-300 μM) for each MMP, in the buffer for the fluorometric assay (FAB: Tris 50 mM, pH=7.5, NaCl 150 mM, CaCl2 10 mM, Brij 35 0.05% and DMSO 1%). The solutions of activated enzyme (final concentrations 2.9 nM for MMP-2, 2.7 nM for MMP-9, 2.4 nM for MMP-7, 1 nM for MMP-14 and MMP-3, 1.5 nM for MMP-8 and MMP-16cd, 0.84 nM for MMP-14cd, 0.66 nM for MMP-13 and 0.20 nM for MMP-1) and of inhibitor were incubated in the assay buffer for 4 h at 25° C. After the addition of solution of fluorogenic substrate 200 μM Mca-Arg-Pro-Lys-Pro-Val-Glu-Nva-Trp-Arg-Lys(Dnp)-NH2 (Sigma) for MMP-3 and Mca-Lys-Pro-Leu-Gly-Leu-Dpa-Ala-Arg-NH2 (Bachem) for all the other enzymes in DMSO (final concentration 2 μM), the hydrolysis were monitored every 15 sec for 20 min, recording the increase in fluorescence (λex=325 nm, λem=400 nm) with a Molecular Device SpectraMax Gemini XS plates reader. The assays were made in triplicate in a total volume of 200 μl per well on 96 well-plates for microtitolation (Corning, black, NBS). The control wells were without inhibitor.
(§4) The inhibition activity of MMP was expressed in relative fluorescence unit (RFU). The percentage of inhibition was calculated using control reactions without inhibitor.
(§5) IC50 was determined using the formula: Vi/Vo=1/(1+[I]/IC50), wherein Vi is the initial rate of the substrate scission in presence of the inhibitor at the concentration [I] and Vo is the initial rate in the absence of inhibitor. The results were analyzed with the SoftMax Pro software and the GraFit software.

[2] = target: T2, MMP-9 (Homo sapiens, UniProt P14780); assay: In vitro fluorometric inhibition assay of MMPs: MMP-9
T2 construct: gift of Prof; Gillian Murphy (Oncology Department, Cambridge University, UK)
Experimental: as §1
as §2, with “The proenzymes were activated immediately before the use with p-aminophenylmercuric acetate (APMA 2 mM for 1 h at 37° C. for MMP-1, MMP-2 and MMP-8, 1 mM for 1 h at 37° C. for MMP-9 and MMP-7, 1 mM for 30 min at 37° C. for MMP-13).” left out
as §3, with “The solutions of activated enzyme (final concentrations 2.9 nM for MMP-2, 2.7 nM for MMP-9, 2.4 nM for MMP-7, 1 nM for MMP-14 and MMP-3, 1.5 nM for MMP-8 and MMP-16cd, 0.84 nM for MMP-14cd, 0.66 nM for MMP-13 and 0.20 nM for MMP-1) and of inhibitor were incubated in the assay buffer for 4 h at 25° C.” left out
as §4, §5

[3] = target: T3, MMP-14 (Homo sapiens, UniProt P50281); assay: In vitro fluorometric inhibition assay of MMPs: MMP-14
T3 construct: purchased Calbiochem
Experimental: as §1, §2, §3, §4, §5

[4] = target: T4, MMP-1 (Homo sapiens, UniProt P03956); assay: In vitro fluorometric inhibition assay of MMPs: MMP-1; conditions: Table I, cells without (*)
T4 construct: purchased Calbiochem
T4 sequence (P03956 100-469): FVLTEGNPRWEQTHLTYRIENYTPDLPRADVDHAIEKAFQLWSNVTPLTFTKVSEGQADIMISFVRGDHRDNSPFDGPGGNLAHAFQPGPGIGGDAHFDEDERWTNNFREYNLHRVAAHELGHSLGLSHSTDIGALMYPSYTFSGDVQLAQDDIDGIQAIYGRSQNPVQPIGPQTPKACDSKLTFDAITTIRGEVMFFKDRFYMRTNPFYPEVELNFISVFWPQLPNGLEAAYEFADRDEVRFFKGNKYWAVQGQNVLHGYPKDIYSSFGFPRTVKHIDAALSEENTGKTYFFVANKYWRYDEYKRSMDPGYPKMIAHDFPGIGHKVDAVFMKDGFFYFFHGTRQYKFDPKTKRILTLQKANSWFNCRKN
Experimental: as §1, §2, §3, §4, §5

T2 sequence (P14780 107-707 limits assumed): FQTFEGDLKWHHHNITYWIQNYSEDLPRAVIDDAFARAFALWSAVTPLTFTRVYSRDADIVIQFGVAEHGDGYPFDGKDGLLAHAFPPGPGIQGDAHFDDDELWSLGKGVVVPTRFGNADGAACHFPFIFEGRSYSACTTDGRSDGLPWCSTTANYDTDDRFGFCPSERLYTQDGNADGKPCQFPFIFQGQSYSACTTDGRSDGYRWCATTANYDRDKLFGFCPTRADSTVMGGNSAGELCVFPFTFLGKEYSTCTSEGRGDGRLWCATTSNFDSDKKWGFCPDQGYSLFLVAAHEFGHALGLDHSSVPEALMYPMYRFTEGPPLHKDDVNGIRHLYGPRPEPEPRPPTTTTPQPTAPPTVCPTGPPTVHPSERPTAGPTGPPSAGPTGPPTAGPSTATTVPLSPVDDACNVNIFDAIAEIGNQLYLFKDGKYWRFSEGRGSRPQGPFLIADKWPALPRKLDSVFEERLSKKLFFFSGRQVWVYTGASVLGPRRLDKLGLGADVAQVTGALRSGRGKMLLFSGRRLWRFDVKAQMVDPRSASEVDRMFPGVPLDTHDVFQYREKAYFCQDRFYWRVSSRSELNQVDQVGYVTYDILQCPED

IC50 ([1]; Table II, cells without (*)): 22.5 ± 2.1 µM
IC50 ([3]; Table II, cells without (*)): 64.7 ± 2.9 µM
SMILES: COc1ccc(-c2ccc(S(=O)(=O)c3ccccc3C(=O)NS(C)(=O)=O)cc2)cc1 [Compound 106, 2-(4′-methoxybiphenyl-4-yl-sulphonyl)-N-(methylsulphonyl)benzamide]

IC50 ([1]; Table II, cells marked (*)): 0.384 ± 0.031 µM
IC50 ([2]; Table II, cells marked (*)): 2.47 ± 0.212 µM
IC50 ([3]; Table II, cells marked (*)): 8.33 ± 0.511 µM
SMILES: COc1ccc(-c2ccc(S(=O)(=O)c3ccccc3CP(=O)(O)O)cc2)cc1 [Compound 86, 2-(4′-methoxybiphenyl-4-ylsulphonyl)benzylphosphonic acid]

IC50 ([1]; Table II, cells marked (*)): 62.5 ± 6.27 µM
IC50 ([2]; Table II, cells marked (*)): 83.5 ± 5.87 µM
IC50 ([3]; Table II, cells marked (*)): 116 ± 9.79 µM
SMILES: COc1ccc(-c2ccc(Sc3ccccc3C(=O)O)cc2)cc1 [Compound 47, 2-(4′-methoxybiphenyl-4-ylthio)benzoic acid]

IC50 ([1]; Table II, cells without (*)): 65.8 ± 5.8 µM
IC50 ([2]; Table II, cells without (*)): 73.7 ± 7.8 µM
IC50 ([3]; Table II, cells without (*)): 156 ± 9.5 µM
SMILES: COc1ccc(-c2ccc(Sc3ccccc3C(C)C(=O)NS(C)(=O)=O)cc2)cc1 (centres unmarked) [Compound 57, 2-(2-(4′-methoxybiphenyl-4-ylthio)phenyl)-N-(methylsulphonyl)propanamide]

IC50 ([1]; Table II, cells marked (*)): 0.159 ± 0.0068 µM
IC50 ([3]; Table II, cells marked (*)): 9.95 ± 0.916 µM
SMILES: COc1ccc(-c2ccc(Sc3ccccc3C(C)C(=O)O)cc2)cc1 (centres unmarked) [Compound 54]

IC50 ([1]; Table II, cells without (*)): 41.8 ± 5.1 µM
IC50 ([3]; Table II, cells without (*)): 73.1 ± 7.9 µM
SMILES: COc1ccc(-c2ccc(Sc3ccccc3C(=O)NS(C)(=O)=O)cc2)cc1 [Compound 48, 2-(4′-methoxybiphenyl-4-ylthio)-N-(methylsulphonyl)benzamide]

IC50 ([1]; Table II, cells marked (*)): 0.0272 ± 0.0016 µM
IC50 ([3]; Table II, cells marked (*)): 6.5 ± 0.597 µM
SMILES: COc1ccc(-c2ccc(Sc3ccccc3C(C)C(=O)NO)cc2)cc1 (centres unmarked) [Compound 56a, N-hydroxy-2-(2-(4′-methoxybiphenyl-4-ylthio)phenyl)propanamide]

IC50 ([1]; Table III, cells marked (*)): 20.5 ± 2.1 µM
IC50 ([2]; Table III, cells marked (*)): 101 ± 5.9 µM
IC50 ([3]; Table III, cells marked (*)): 528 ± 58.1 µM
SMILES: COc1ccc(Oc2ccc(S(=O)(=O)c3ccccc3C(=O)NS(C)(=O)=O)cc2)cc1 [Compound 38, 2-(4-(4-methoxyphenoxy)phenylsulphonyl)-N-(methylsulphonyl)benzamide]

IC50 ([1]; Table III, pH 6.7): 0.571 ± 0.045 µM
IC50 ([2]; Table III, pH 6.7): 0.168 ± 0.027 µM
IC50 ([3]; Table III, pH 6.7): 1.95 ± 0.212 µM
SMILES: COc1ccc(Oc2ccc(S(=O)(=O)c3ccccc3CP(=O)(O)O)cc2)cc1 [Compound 72, 2-(4-(4-methoxyphenoxy)phenylsulphonyl)benzyl phosphonic acid]

IC50 ([1]; Table III, cells marked (*)): 183 ± 18.4 µM
IC50 ([2]; Table III, cells marked (*)): 106 ± 23.6 µM
IC50 ([3]; Table III, cells marked (*)): 272 ± 18.7 µM
SMILES: COc1ccc(Oc2ccc(Sc3ccccc3CC(=O)NS(C)(=O)=O)cc2)cc1 [Compound 39, 2-(2-(4-(4-methoxyphenoxy)phenylthio)phenyl)-N-(methylsulphonyl)acetamide]

IC50 ([1]; Table III, cells marked (*)): 78.6 ± 6.3 µM
IC50 ([2]; Table III, cells marked (*)): 47.3 ± 2 µM
IC50 ([3]; Table III, cells marked (*)): 260 ± 30.1 µM
SMILES: COc1ccc(Oc2ccc(S(=O)(=O)c3ccccc3CC(=O)NS(C)(=O)=O)cc2)cc1 [Compound 43, 2-(2-(4-(4-methoxyphenoxy)phenylsulphonyl)phenyl)-N-(methylsulphonyl)acetamide]

Second part, the compound before the results:

SMILES: COc1ccc(Oc2ccc(Sc3ccccc3CC(=O)NO)cc2)cc1 [Compound 13]
IC50 ([1]; Table III, cells without (*)): 0.568 ± 0.031 µM
IC50 ([2]; Table III, cells without (*)): 0.105 ± 0.013 µM

SMILES: COc1ccc(-c2ccc(Sc3ccccc3CC(=O)NS(C)(=O)=O)cc2)cc1 [Compound 25, 2-(2-(4′-methoxybiphenyl-4-ylthio)phenyl)-N-(methylsulphonyl)acetamide]
IC50 ([1]; Table II, cells without (*)): 5.34 ± 0.65 µM
IC50 ([2]; Table II, cells without (*)): 17.7 ± 1.4 µM
IC50 ([3]; Table II, cells without (*)): 127 ± 6.9 µM

SMILES: O=C(O)CC(C(=O)O)c1ccccc1Sc1ccc(-c2ccccc2)cc1 (centres unmarked)
IC50 [4]: 189 ± 28 µM
IC50 ([1]; Table I, cells without (*)): 11 ± 1.1 µM
IC50 ([2]; Table I, cells without (*)): 95 ± 8.7 µM

SMILES: COc1ccc(-c2ccc(Sc3ccccc3CC(=O)O)cc2)cc1 [Compound 22, 2-(2-(4′-methoxybiphenyl-4-ylthio)phenyl)acetic acid]
IC50 ([1]; Table II, cells marked (*)): 0.114 ± 0.005 µM
IC50 ([3]; Table II, cells marked (*)): 3.65 ± 0.2 µM

SMILES: O=C(O)CCC(C(=O)O)c1ccccc1Sc1ccc(-c2ccccc2)cc1 (centres unmarked)
IC50 [4]: 190 ± 10 µM
IC50 ([1]; Table I, cells without (*)): 1.8 ± 0.16 µM
IC50 ([2]; Table I, cells without (*)): 17 ± 0.96 µM

SMILES: COc1ccc(Oc2ccc(Sc3ccccc3C(=O)NS(C)(=O)=O)cc2)cc1 [Compound 8, 2-(4-(4-methoxyphenoxy)phenylthio)-N-(methylsulphonyl)benzamide]
IC50 ([1]; Table III, cells marked (*)): 12.2 ± 1.6 µM
IC50 ([2]; Table III, cells marked (*)): 17.8 ± 1.3 µM
IC50 ([3]; Table III, cells marked (*)): 79 ± 6 µM

SMILES: O=C1CC(c2ccccc2S(=O)(=O)c2ccc(-c3ccccc3)cc2)C(=O)N1O (centres unmarked)
IC50 [4]: 186 ± 8 µM
IC50 ([1]; Table I, cells without (*)): 7 ± 0.5 µM
IC50 ([2]; Table I, cells without (*)): 47 ± 2.7 µM

SMILES: O=C(O)Cc1ccccc1Sc1ccc(-c2ccccc2)cc1
IC50 [4]: 334 ± 5.7 µM
IC50 ([1]; Table I, cells without (*)): 0.33 ± 0.026 µM
IC50 ([2]; Table I, cells without (*)): 6.7 ± 0.3 µM

SMILES: O=C(Cc1ccccc1Sc1ccc(-c2ccsc2)cc1)NO [Compound 30, N-hydroxy-2-(2-(4-(thiophene-3-yl)phenylthio)phenyl)acetamide]
IC50 ([1]; Table I, cells marked (*)): 0.0379 ± 0.0022 µM
IC50 ([2]; Table I, cells marked (*)): 1.11 ± 0.136 µM

SMILES: O=C1CC(c2ccccc2Sc2ccc(-c3ccccc3)cc2)C(=O)N1O (centres unmarked)
IC50 [4]: 83 ± 11 µM
IC50 ([1]; Table I, cells without (*)): 12 ± 0.8 µM
IC50 ([2]; Table I, cells without (*)): 35 ± 2.7 µM

SMILES: COc1ccc(Oc2ccc(Sc3ccccc3CC(=O)O)cc2)cc1 [Compound 11, 2-(2-(4-(4-methoxyphenoxy)phenylthio)phenyl)acetic acid]
IC50 ([1]; Table III, cells without (*)): 20 ± 8 µM
IC50 ([2]; Table III, cells without (*)): 48.7 ± 8.6 µM
IC50 ([3]; Table III, cells without (*)): 297 ± 64 µM
